According to ChEMBL document CHEMBL4393664, “2,4-Disubstituted quinazolines targeting breast cancer cells via EGFR-PI3K” (Eur J Med Chem, 2019):
Calls of active or inactive are those of the source. The calls are words filed in the database; no cut-off is given here.

Legend:
[1] = target: Epidermal growth factor receptor (Homo sapiens) (UniProt P00533); test: Inhibition of EGFR phosphorylation at Y1068 residues in human MCF7 cells after 8 hrs by Western blot analysis; format: cell-based
MDA-MB-231 [2] = test: Cell cycle arrest in human MDA-MB-231 cells assessed as accumulation at G2 phase at 3 uM after 24 hrs by propidium iodide/RNase A staining-based flow cytometric analysis (reference value: 27.76%); format: functional
MDA-MB-231 [3] = test: Effect on total AKT protein level in human MDA-MB-231 cells up to 12 uM after 8 hrs by Western blot analysis; format: ADME, cell-based; conditions: mda-mb-231, 8 h
MCF7 [4] = test: Induction of apoptosis in human MCF7 cells assessed as necrotic cells at 6 uM after 48 hrs by Annexin-V-FITC/propidium iodide staining based flow cytometry (reference value: 1.57%); format: functional
MCF7 [5] = test: Cell cycle arrest in human MCF7 cells assessed as accumulation at S phase at 3 uM after 24 hrs by propidium iodide/RNase A staining-based flow cytometric analysis (reference value: 17.17%); format: functional
MDA-MB-231 [6] = test: Induction of apoptosis in human MDA-MB-231 cells assessed as increase in Bax expression levels at 3 to 12 uM after 48 hrs by Western blot analysis; format: functional, cell-based
[7] = target: Epidermal growth factor receptor (Homo sapiens) (UniProt P00533); test: Inhibition of EGFR phosphorylation at Y992 residues in human MCF7 cells after 8 hrs by Western blot analysis; format: cell-based
MCF7 [8] = test: Antimigratory activity against human MCF7 cells assessed as reduction in scratch healing after 72 hrs by microscopy based scratch wound assay; format: functional, cell-based
MDA-MB-231 [9] = test: Induction of apoptosis in human MDA-MB-231 cells assessed as early apoptotic cells at 2 uM after 48 hrs by Annexin-V-FITC/propidium iodide staining based flow cytometry (reference value: 4.33%); format: functional
MDA-MB-231 [10] = test: Cell cycle arrest in human MDA-MB-231 cells assessed as accumulation at S phase at 6 uM after 24 hrs by propidium iodide/RNase A staining-based flow cytometric analysis (reference value: 23.07%); format: functional
MCF7 [11] = test: Induction of apoptosis in human MCF7 cells assessed as late apoptotic cells at 4uM after 48 hrs by Annexin-V-FITC/propidium iodide staining based flow cytometry (reference value: 4.28%); format: functional
MCF7 [12] = test: Induction of apoptosis in human MCF7 cells assessed as increase in P53 expression at 3 to 12 uM after 48 hrs by Western blot analysis; format: functional, cell-based
MDA-MB-231 [13] = test: Antimigratory activity against human MDA-MB-231 cells assessed as reduction in scratch healing after 72 hrs by microscopy based scratch wound assay; format: functional, cell-based
MCF7 [14] = test: Induction of apoptosis in human MCF7 cells assessed as necrotic cells at 2 uM after 48 hrs by Annexin-V-FITC/propidium iodide staining based flow cytometry (reference value: 1.57%); format: functional
MCF7 [15] = test: Induction of apoptosis in human MCF7 cells after 48 hrs by Annexin-V-FITC/propidium iodide staining based flow cytometry; format: functional, cell-based
MCF7 [16] = test: Cell cycle arrest in human MCF7 cells assessed as accumulation at G1 phase at 6 uM after 24 hrs by propidium iodide/RNase A staining-based flow cytometric analysis (reference value: 52.21%); format: functional
[17] = target: Epidermal growth factor receptor (Homo sapiens) (UniProt P00533); test: Inhibition of EGFR in human MDA-MB-231 cells assessed as reduction in phosphorylated PI3K expression after 8 hrs by Western blot analysis; format: cell-based
MDA-MB-231 [18] = test: Induction of apoptosis in human MDA-MB-231 cells assessed as necrotic cells at 2 uM after 48 hrs by Annexin-V-FITC/propidium iodide staining based flow cytometry (reference value: 1.21%); format: functional
MDA-MB-231 [19] = test: Cell cycle arrest in human MDA-MB-231 cells assessed as accumulation at G1 phase at 6 uM after 24 hrs by propidium iodide/RNase A staining-based flow cytometric analysis (reference value: 49.17%); format: functional
MCF7 [20] = test: Antiproliferative activity against human MCF7 cells assessed as reduction in cell viability up to 32 uM by MTT assay; format: functional, cell-based; conditions: TDE = time-dependent effect
MDA-MB-231 [21] = test: Inhibition of colony formation in human MDA-MB-231 cells at 9 uM after 7 days by crystal violet staining based microscopic analysis; format: functional, cell-based
MDA-MB-231 [22] = test: Induction of apoptosis in human MDA-MB-231 cells assessed as early apoptotic cells at 6 uM after 48 hrs by Annexin-V-FITC/propidium iodide staining based flow cytometry (reference value: 4.33%); format: functional
[23] = target: Epidermal growth factor receptor (Homo sapiens) (UniProt P00533); test: Inhibition of EGFR phosphorylation at Y1045 residues in human MDA-MB-231 cells after 8 hrs by Western blot analysis; format: cell-based
[24] = target: Epidermal growth factor receptor (Homo sapiens) (UniProt P00533); test: Inhibition of EGFR in human MCF7 cells assessed as reduction in phosphorylated PI3K expression after 8 hrs by Western blot analysis; format: cell-based
MDA-MB-231 [25] = test: Induction of apoptosis in human MDA-MB-231 cells assessed as late apoptotic cells at 6 uM after 48 hrs by Annexin-V-FITC/propidium iodide staining based flow cytometry (reference value: 2.38%); format: functional
MDA-MB-231 [26] = test: Induction of apoptosis in human MDA-MB-231 cells assessed as late apoptotic cells at 2 uM after 48 hrs by Annexin-V-FITC/propidium iodide staining based flow cytometry (reference value: 2.38%); format: functional
MCF7 [27] = test: Induction of apoptosis in human MCF7 cells assessed as downregulation of Bcl-2 protein expression at 3 to 12 uM after 48 hrs by Western blot analysis; format: functional, cell-based
MCF7 [28] = test: Cell cycle arrest in human MCF7 cells assessed as accumulation at G2 phase at 3 uM after 24 hrs by propidium iodide/RNase A staining-based flow cytometric analysis (reference value: 30.62%); format: functional
MDA-MB-231 [29] = test: Induction of apoptosis in human MDA-MB-231 cells assessed as downregulation of Bcl-2 protein expression at 3 to 12 uM after 48 hrs by Western blot analysis; format: functional, cell-based
MCF7 [30] = test: Induction of apoptosis in human MCF7 cells assessed as viable cells at 4 uM after 48 hrs by Annexin-V-FITC/propidium iodide staining based flow cytometry (reference value: 91.1%); format: functional; conditions: MCF7, 48 h, read-out: Activity
MDA-MB-231 [31] = test: Induction of apoptosis in human MDA-MB-231 cells assessed as increase in p53 expression at 3 to 12 uM after 48 hrs by Western blot analysis; format: functional, cell-based
MCF7 [32] = test: Cell cycle arrest in human MCF7 cells assessed as accumulation at G2 phase at 12 uM after 24 hrs by propidium iodide/RNase A staining-based flow cytometric analysis (reference value: 30.62%); format: functional
MDA-MB-231 [33] = test: Cell cycle arrest in human MDA-MB-231 cells assessed as accumulation at G1 phase at 12 uM after 24 hrs by propidium iodide/RNase A staining-based flow cytometric analysis (reference value: 49.17%); format: functional
MCF7 [34] = test: Effect on total EGFR protein level in human MCF7 cells up to 12 uM after 8 hrs by Western blot analysis; format: ADME, cell-based; conditions: mcf7, 8 h
MCF7 [35] = test: Induction of apoptosis in human MCF7 cells assessed as early apoptotic cells at 6 uM after 48 hrs by Annexin-V-FITC/propidium iodide staining based flow cytometry (reference value: 3.05%); format: functional
MDA-MB-231 [36] = test: Antiproliferative activity against human MDA-MB-231 cells assessed as reduction in cell viability up to 32 uM by MTT assay; format: functional, cell-based; conditions: TDE = time-dependent effect
MCF7 [37] = test: Induction of apoptosis in human MCF7 cells assessed as late apoptotic cells at 6 uM after 48 hrs by Annexin-V-FITC/propidium iodide staining based flow cytometry (reference value: 4.28%); format: functional

Epidermal growth factor receptor (Homo sapiens), sequence (P00533 whole entry): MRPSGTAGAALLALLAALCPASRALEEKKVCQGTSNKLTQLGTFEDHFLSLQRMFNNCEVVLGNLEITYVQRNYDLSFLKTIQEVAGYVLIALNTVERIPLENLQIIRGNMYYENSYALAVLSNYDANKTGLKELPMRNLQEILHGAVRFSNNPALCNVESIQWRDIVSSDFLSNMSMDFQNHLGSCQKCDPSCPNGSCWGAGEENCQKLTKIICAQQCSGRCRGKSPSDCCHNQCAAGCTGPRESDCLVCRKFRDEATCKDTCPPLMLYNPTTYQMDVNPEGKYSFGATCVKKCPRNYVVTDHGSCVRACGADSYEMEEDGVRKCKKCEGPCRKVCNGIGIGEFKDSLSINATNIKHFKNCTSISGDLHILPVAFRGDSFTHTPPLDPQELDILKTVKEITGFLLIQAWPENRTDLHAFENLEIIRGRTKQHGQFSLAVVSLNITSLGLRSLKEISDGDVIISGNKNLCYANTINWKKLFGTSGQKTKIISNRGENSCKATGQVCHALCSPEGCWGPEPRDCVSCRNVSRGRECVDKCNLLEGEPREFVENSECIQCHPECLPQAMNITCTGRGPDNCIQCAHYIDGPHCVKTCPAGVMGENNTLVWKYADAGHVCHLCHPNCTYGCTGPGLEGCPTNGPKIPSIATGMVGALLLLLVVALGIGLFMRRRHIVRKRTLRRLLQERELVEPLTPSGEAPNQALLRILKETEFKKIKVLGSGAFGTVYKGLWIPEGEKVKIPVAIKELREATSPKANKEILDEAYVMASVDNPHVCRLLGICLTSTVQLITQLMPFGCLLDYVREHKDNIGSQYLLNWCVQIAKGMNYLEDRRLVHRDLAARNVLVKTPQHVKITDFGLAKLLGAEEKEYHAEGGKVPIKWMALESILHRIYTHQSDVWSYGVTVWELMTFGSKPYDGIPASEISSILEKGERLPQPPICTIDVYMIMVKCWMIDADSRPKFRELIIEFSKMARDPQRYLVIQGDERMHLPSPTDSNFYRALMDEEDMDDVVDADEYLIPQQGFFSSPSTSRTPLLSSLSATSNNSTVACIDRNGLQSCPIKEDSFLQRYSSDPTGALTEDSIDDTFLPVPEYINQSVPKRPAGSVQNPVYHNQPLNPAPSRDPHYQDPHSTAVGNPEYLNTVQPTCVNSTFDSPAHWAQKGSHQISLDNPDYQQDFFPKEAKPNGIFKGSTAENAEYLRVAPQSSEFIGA

FC(F)(F)c1ccc(CSc2nc(Nc3ccc(C(F)(F)F)cc3)c3ccccc3n2)cc1
inhibition [1]: Dose-dependent effect | Activity (MDA-MB-231 [2]): 28.04% | Activity (MDA-MB-231 [3]): Non-Toxic | Activity (MCF7 [4]): 1.8% | Activity (MCF7 [5]): 20.44% | Activity (MDA-MB-231 [6]): Active | inhibition [7]: Dose-dependent effect | Activity (MCF7 [8]): Dose-dependent effect | Activity (MDA-MB-231 [9]): 6.56% | Activity (MDA-MB-231 [10]): 17.32% | Activity (MCF7 [11]): 7.49% | Activity (MCF7 [12]): Active | Activity (MDA-MB-231 [13]): Dose-dependent effect | Activity (MCF7 [14]): 3.28% | Activity (MCF7 [15]): Dose-dependent effect | Activity (MCF7 [16]): 65.05% | inhibition [17]: Dose-dependent effect | Activity (MDA-MB-231 [18]): 2.6% | Activity (MDA-MB-231 [19]): 60.7% | Activity (MCF7 [20]): Tde | growth inhibition (GI) (MDA-MB-231 [21]): Active | Activity (MDA-MB-231 [22]): 10.4% | inhibition [23]: Dose-dependent effect | inhibition [24]: Dose-dependent effect | Activity (MDA-MB-231 [25]): 20.7% | Activity (MDA-MB-231 [26]): 7.92% | Activity (MCF7 [27]): Active | Activity (MCF7 [28]): 20.38% | Activity (MDA-MB-231 [29]): Active | viability at 4 µM (MCF7 [30]): 76.2% | Activity (MDA-MB-231 [31]): Active | Activity (MCF7 [32]): 14.32% | Activity (MDA-MB-231 [33]): 69.54% | Activity (MCF7 [34]): Non-Toxic | Activity (MCF7 [35]): 17.1% | Activity (MDA-MB-231 [36]): Tde | Activity (MCF7 [37]): 10.6%
